Literature values as cited in article PMC3433420 (PLoS ONE, 2012).
Like-named read-outs stand apart in the source and are kept apart here.

How the values were obtained:
GRB7 SH2 domain = GRB7 SH2 domain (Homo sapiens, UniProt Q14451); set-up: 6X His; thioredoxin; made in house; host or cells: E. coli BL21(DE3)pLysS; settings: Protein GRB7, most recent PM interactions, cited from earlier work
SH2 and PTB domains = settings: most recent PM interactions, cited from earlier work
Excerpt: Supplement pone.0044471.s022.xlsx, sheet "Most recent PM interactions" | column: Kd || Supplement pone.0044471.s022.xlsx, sheet "All original PM interactions" | column: Kd

[1] = ref Jones et al. 2006 / Kaushansky et al. Chem and Biol 2008
[2] = Protein ABL2, ref Jones et al. 2006 / Kaushansky et al. Chem and Biol 2008
[3] = Protein BLK, ref Jones et al. 2006 / Kaushansky et al. Chem and Biol 2008
[4] = Protein GRB10, ref Jones et al. 2006 / Kaushansky et al. Chem and Biol 2008
[5] = Protein ITK, ref Jones et al. 2006 / Kaushansky et al. Chem and Biol 2008
[6] = Protein PIK3R1-NC, ref Jones et al. 2006 / Kaushansky et al. Chem and Biol 2008
[7] = Protein PLCG1-NC, ref Jones et al. 2006 / Kaushansky et al. Chem and Biol 2008
[8] = Protein PLCG2-N, ref Jones et al. 2006 / Kaushansky et al. Chem and Biol 2008
[9] = Protein RASA1-N, ref Jones et al. 2006 / Kaushansky et al. Chem and Biol 2008
[10] = Protein RASA1-NC, ref Jones et al. 2006 / Kaushansky et al. Chem and Biol 2008
[11] = Protein SH2D3A, ref Jones et al. 2006 / Kaushansky et al. Chem and Biol 2008
[12] = Protein SH2D3C, ref Jones et al. 2006 / Kaushansky et al. Chem and Biol 2008
[13] = Protein SHC1-PTB, ref Jones et al. 2006 / Kaushansky et al. Chem and Biol 2008
[14] = Protein SHC2-PTB, ref Jones et al. 2006 / Kaushansky et al. Chem and Biol 2008
[15] = Protein SHF, ref Jones et al. 2006 / Kaushansky et al. Chem and Biol 2008
[16] = Protein SRC, ref Jones et al. 2006 / Kaushansky et al. Chem and Biol 2008
[17] = Protein SYK-C, ref Jones et al. 2006 / Kaushansky et al. Chem and Biol 2008
[18] = Protein SYK-N, ref Jones et al. 2006 / Kaushansky et al. Chem and Biol 2008
[19] = Protein SYK-NC, ref Jones et al. 2006 / Kaushansky et al. Chem and Biol 2008
[20] = Protein TEC, ref Jones et al. 2006 / Kaushansky et al. Chem and Biol 2008
[21] = Protein VAV3, ref Jones et al. 2006 / Kaushansky et al. Chem and Biol 2008
[22] = Protein YES1, ref Jones et al. 2006 / Kaushansky et al. Chem and Biol 2008

GRB7 SH2 domain, sequence (Q14451 431-527 limits assumed): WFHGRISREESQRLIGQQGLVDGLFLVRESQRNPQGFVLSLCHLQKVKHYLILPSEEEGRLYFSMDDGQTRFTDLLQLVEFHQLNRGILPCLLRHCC

AFSPAFDNLYpYWDQDPPE [ErbB2 1222]
Kd (GRB7 SH2 domain; [1]): 0.25 µM | Kd (SH2 and PTB domains; Protein ABL1, ref Jones et al. 2006 / Kaushansky et al. Chem and Biol 2008): 1.84 µM | Kd (SH2 and PTB domains; [2]): 0.19 µM | Kd (SH2 and PTB domains; [3]): 0.05 µM | Kd (SH2 and PTB domains; Protein CRKL, ref Jones et al. 2006 / Kaushansky et al. Chem and Biol 2008): 1.46 µM | Kd (SH2 and PTB domains; [4]): 0.49 µM | Kd (SH2 and PTB domains; [5]): 0.22 µM | Kd (SH2 and PTB domains; [6]): 1.84 µM | Kd (SH2 and PTB domains; Protein PIK3R3-NC, ref Jones et al. 2006 / Kaushansky et al. Chem and Biol 2008): 0.78 µM | Kd (SH2 and PTB domains; [7]): 1.79 µM | Kd (SH2 and PTB domains; [8]): 0.6 µM | Kd (SH2 and PTB domains; Protein PLCG2-NC, ref Jones et al. 2006 / Kaushansky et al. Chem and Biol 2008): 0.26 µM | Kd (SH2 and PTB domains; [9]): 0.5 µM | Kd (SH2 and PTB domains; [10]): 0.22 µM | Kd (SH2 and PTB domains; Protein SH2B2, ref Jones et al. 2006 / Kaushansky et al. Chem and Biol 2008): 1.47 µM | Kd (SH2 and PTB domains; [11]): 1.6 µM | Kd (SH2 and PTB domains; [12]): 0.71 µM | Kd (SH2 and PTB domains; [13]): 0.61 µM | Kd (SH2 and PTB domains; [14]): 0.46 µM | Kd (SH2 and PTB domains; Protein SHC3, ref Jones et al. 2006 / Kaushansky et al. Chem and Biol 2008): 1.71 µM | Kd (SH2 and PTB domains; [15]): 0.59 µM | Kd (SH2 and PTB domains; [16]): 0.2 µM | Kd (SH2 and PTB domains; [17]): 1.97 µM | Kd (SH2 and PTB domains; [18]): 0.2 µM | Kd (SH2 and PTB domains; [19]): 0.46 µM | Kd (SH2 and PTB domains; [20]): 1.61 µM | Kd (SH2 and PTB domains; Protein TENC1, ref Jones et al. 2006 / Kaushansky et al. Chem and Biol 2008): 0.84 µM | Kd (SH2 and PTB domains; Protein TNS3, ref Jones et al. 2006 / Kaushansky et al. Chem and Biol 2008): 1.29 µM | Kd (SH2 and PTB domains; [21]): 1.12 µM | Kd (SH2 and PTB domains; [22]): 0.22 µM

AFSPAFDNLpYYWDQDPPE [ErbB2 1221]
Kd (GRB7 SH2 domain; [1]): 0.53 µM | Kd (SH2 and PTB domains; [2]): 0.5 µM | Kd (SH2 and PTB domains; [3]): 0.63 µM | Kd (SH2 and PTB domains; Protein BLNK, ref Jones et al. 2006 / Kaushansky et al. Chem and Biol 2008): 1.56 µM | Kd (SH2 and PTB domains; Protein FGR, ref Jones et al. 2006 / Kaushansky et al. Chem and Biol 2008): 0.42 µM | Kd (SH2 and PTB domains; [4]): 0.12 µM | Kd (SH2 and PTB domains; Protein GRB14, ref Jones et al. 2006 / Kaushansky et al. Chem and Biol 2008): 1.4 µM | Kd (SH2 and PTB domains; [5]): 0.78 µM | Kd (SH2 and PTB domains; Protein LYN, ref Jones et al. 2006 / Kaushansky et al. Chem and Biol 2008): 0.93 µM | Kd (SH2 and PTB domains; [6]): 1.16 µM | Kd (SH2 and PTB domains; Protein PIK3R2-N, ref Jones et al. 2006 / Kaushansky et al. Chem and Biol 2008): 0.95 µM | Kd (SH2 and PTB domains; Protein PIK3R3-C, ref Jones et al. 2006 / Kaushansky et al. Chem and Biol 2008): 1.91 µM | Kd (SH2 and PTB domains; Protein PLCG1-N, ref Jones et al. 2006 / Kaushansky et al. Chem and Biol 2008): 1.93 µM | Kd (SH2 and PTB domains; [7]): 1.96 µM | Kd (SH2 and PTB domains; [8]): 0.17 µM | Kd (SH2 and PTB domains; [9]): 0.19 µM | Kd (SH2 and PTB domains; [10]): 0.51 µM | Kd (SH2 and PTB domains; [11]): 1.28 µM | Kd (SH2 and PTB domains; [12]): 0.16 µM | Kd (SH2 and PTB domains; Protein SHB, ref Jones et al. 2006 / Kaushansky et al. Chem and Biol 2008): 0.21 µM | Kd (SH2 and PTB domains; [13]): 0.34 µM | Kd (SH2 and PTB domains; [14]): 0.43 µM | Kd (SH2 and PTB domains; [15]): 0.34 µM | Kd (SH2 and PTB domains; Protein SLA2, ref Jones et al. 2006 / Kaushansky et al. Chem and Biol 2008): 1.44 µM | Kd (SH2 and PTB domains; [16]): 0.035 µM | Kd (SH2 and PTB domains; Protein SUPT6H, ref Jones et al. 2006 / Kaushansky et al. Chem and Biol 2008): 1.57 µM | Kd (SH2 and PTB domains; [17]): 0.54 µM | Kd (SH2 and PTB domains; [18]): 0.26 µM | Kd (SH2 and PTB domains; [19]): 0.3 µM | Kd (SH2 and PTB domains; [20]): 0.77 µM | Kd (SH2 and PTB domains; Protein TXK, ref Jones et al. 2006 / Kaushansky et al. Chem and Biol 2008): 1.23 µM | Kd (SH2 and PTB domains; Protein VAV2, ref Jones et al. 2006 / Kaushansky et al. Chem and Biol 2008): 1.75 µM | Kd (SH2 and PTB domains; [21]): 1.13 µM | Kd (SH2 and PTB domains; [22]): 0.045 µM | Kd (SH2 and PTB domains; Protein ZAP70-NC, ref Jones et al. 2006 / Kaushansky et al. Chem and Biol 2008): 1.44 µM

DDTFLPVPEpYINQSVPKd [ErbB1 1092]
Kd (GRB7 SH2 domain; ref Jones et al. 2006 / Kaushansky et al. Mol Biosys 2008 / Kaushansky et al. Chem and Biol 2008): 1.99 µM | Kd (SH2 and PTB domains; Protein ABL1, ref Jones et al. 2006 / Kaushansky et al. Mol Biosys 2008 / Kaushansky et al. Chem and Biol 2008): 0.92 µM | Kd (SH2 and PTB domains; Protein ABL2, ref Jones et al. 2006 / Kaushansky et al. Mol Biosys 2008 / Kaushansky et al. Chem and Biol 2008): 0.15 µM | Kd (SH2 and PTB domains; Protein BLK, ref Jones et al. 2006 / Kaushansky et al. Mol Biosys 2008 / Kaushansky et al. Chem and Biol 2008): 0.3 µM | Kd (SH2 and PTB domains; Protein GRB2, ref Jones et al. 2006 / Kaushansky et al. Mol Biosys 2008 / Kaushansky et al. Chem and Biol 2008): 0.2 µM | Kd (SH2 and PTB domains; Protein GRB10, ref Jones et al. 2006 / Kaushansky et al. Mol Biosys 2008 / Kaushansky et al. Chem and Biol 2008): 1.3 µM | Kd (SH2 and PTB domains; Protein ITK, ref Jones et al. 2006 / Kaushansky et al. Mol Biosys 2008 / Kaushansky et al. Chem and Biol 2008): 0.22 µM | Kd (SH2 and PTB domains; Protein NCK2, ref Jones et al. 2006 / Kaushansky et al. Mol Biosys 2008 / Kaushansky et al. Chem and Biol 2008): 1.1 µM | Kd (SH2 and PTB domains; Protein PIK3R1-N, ref Jones et al. 2006 / Kaushansky et al. Mol Biosys 2008 / Kaushansky et al. Chem and Biol 2008): 1.08 µM | Kd (SH2 and PTB domains; Protein PIK3R1-NC, ref Jones et al. 2006 / Kaushansky et al. Mol Biosys 2008 / Kaushansky et al. Chem and Biol 2008): 0.67 µM | Kd (SH2 and PTB domains; Protein PIK3R2-N, ref Jones et al. 2006 / Kaushansky et al. Mol Biosys 2008 / Kaushansky et al. Chem and Biol 2008): 0.45 µM | Kd (SH2 and PTB domains; Protein PIK3R2-NC, ref Jones et al. 2006 / Kaushansky et al. Mol Biosys 2008 / Kaushansky et al. Chem and Biol 2008): 1.41 µM | Kd (SH2 and PTB domains; Protein PIK3R3-N, ref Jones et al. 2006 / Kaushansky et al. Mol Biosys 2008 / Kaushansky et al. Chem and Biol 2008): 0.51 µM | Kd (SH2 and PTB domains; Protein PIK3R3-NC, ref Jones et al. 2006 / Kaushansky et al. Mol Biosys 2008 / Kaushansky et al. Chem and Biol 2008): 1.02 µM | Kd (SH2 and PTB domains; Protein PLCG2-NC, ref Jones et al. 2006 / Kaushansky et al. Mol Biosys 2008 / Kaushansky et al. Chem and Biol 2008): 1.63 µM | Kd (SH2 and PTB domains; Protein RASA1-N, ref Jones et al. 2006 / Kaushansky et al. Mol Biosys 2008 / Kaushansky et al. Chem and Biol 2008): 0.18 µM | Kd (SH2 and PTB domains; Protein SRC, ref Jones et al. 2006 / Kaushansky et al. Mol Biosys 2008 / Kaushansky et al. Chem and Biol 2008): 1.79 µM | Kd (SH2 and PTB domains; Protein SYK-C, ref Jones et al. 2006 / Kaushansky et al. Mol Biosys 2008 / Kaushansky et al. Chem and Biol 2008): 1.92 µM | Kd (SH2 and PTB domains; Protein SYK-NC, ref Jones et al. 2006 / Kaushansky et al. Mol Biosys 2008 / Kaushansky et al. Chem and Biol 2008): 0.91 µM | Kd (SH2 and PTB domains; Protein VAV2, ref Jones et al. 2006 / Kaushansky et al. Mol Biosys 2008 / Kaushansky et al. Chem and Biol 2008): 0.54 µM | Kd (SH2 and PTB domains; Protein YES1, ref Jones et al. 2006 / Kaushansky et al. Mol Biosys 2008 / Kaushansky et al. Chem and Biol 2008): 0.34 µM
